# Source: patent US10183015B2, “Heterocyclic compounds and methods of use” (Medivation Technologies LLC, priority 2015, dated 2019)
# Several values for one entry are separate records, joined by “and”; a condition that tells them apart may be missing. Equal entries are not always repeated.
# Experiments:
# Format in all cases: in vivo
# [1] = test system: HMGCoA; assay: DIN mouse model: hepatic HMGCOA gene expression; conditions: liver, 20 mg/kg group
# Protocol: (§1) Gene expression analysis. Hepatic expression levels of genes involved in lipid metabolism (FAS, SREBP1, ACC1, SCD1), cholesterol metabolism (HMG-CoAR, LDLR), SREBP proteolysis (SCAP, INSIG1), ER stress (PERK), oxidative stress (NRF2), inflammation (MCP-1), and fibrosis (collagen 1α1) were quantified by RTqPCR. Expression level was normalized to 18S gene expression and relative expression to vehicle group was calculated with the […] method.
# Male C57Bl/6J mice (8 weeks old) were housed in enriched ventilated cages (31×12.5×12.7 cm) throughout the experimental phase. Animals' cages litters were changed at least once a week. Animal were housed 5 per cage on inverted 12-hour light cycle (at 09:00 am lights off), 22±2° C. and 55±10% relative humidity. The acclimation period was 20 days. During the acclimation period, all mice were fed a standard diet (RM1 (E) 801492, SDS) and tap water ad libitum. After the acclimation period, mice were fed with the DIN diet (60% fat, cholesterol enriched) and fructose-enriched tap water ad libitum until the end of the experiment.
# At 6 weeks of diet, mice were 4-hour fasted (09:00 am to 1:00 pm) and blood (150 μl/EDTA) was collected at 01:00 pm by retro-orbital bleeding under isoflurane anesthesia. Mice were then allocated in 2 homogenous groups (n=12/group) according to their plasma levels of ALT (average levels: 685U/L), AST (average levels: 627U/L) and HOMA-IR index (average value: 4.7), into 2 homogenous groups (see values at day 0 in Tables 15A and 15B ALT/AST and Tables 16A and 16B for HOMA-IR). Mice were then treated once daily by oral gavage with vehicle (Group 1) or Compound #37 at 20 mg/kg (Group 2) for 70 days.
# Hepatic expression levels of genes involved in lipid (FAS, SREBP1, ACC1, SCD1), cholesterol metabolism (HMG-CoAR, LDLR), in SREBP proteolysis (SCAP, INSIG1), in ER stress (PERK), oxidative stress (NRF2), and inflammation (MCP-1) were not changed. However, expression of collagen 1α1, involved in liver fibrosis, was reduced by 66% in mice treated with Compound #37 (p<0.05 vs. vehicle).
# [2] = test system: MCP-1; assay: Short-term Paigen-diet NASH mouse model: hepatic MCP-1 gene expression (RT-qPCR); set-up: key to MCP-1 gene expression: 2DDct: expression relative to vehicle group, normalized to 18S (2^-ΔΔCt); key to MCP-1 gene expression: DDct: ΔCt (vs 18S) relative to vehicle group; conditions: 21 days
# Protocol: (§2) To investigate whether Compound #37 prevents the development of pathology associated with NASH and steatosis in an acute exploratory disease model, a study was conducted using a diet-induced acute liver steatosis model in mice. As described below, in this study, C57BL/6J mice were initiated on the Paigen diet and simultaneously treated with Compound #37 (5, 20, and 40 mg/kg/day) or vehicle control (20% HPβCD 10 mL/kg/day) by oral gavage for 21 days.
# After acclimation, 8-week old male C57Bl/6J mice (Charles River) weighing about 25 g were randomized in 4 groups according their body weight and treated once daily around noon by oral gavage with vehicle, or Compound #37 at various for 21 days as follows: Group 1: vehicle-20% (2-hydroxypropyl)-β-cyclodextrin (HP-β-CD) (n=10); Group 2: Compound #37, 5 mg/kg ([…]) Group 4: Compound #37, 40 mg/kg (n=10). During the treatment period, body weight and food intake (measured over 24h) were measured 3 times per week and once a week, respectively. During the acclimation, all mice were fed a standard diet (Special Diets Services RM1 (E), product no. 801492) and tap water ad libitum. After the acclimation period, mice were fed until the end of the experiment with a 60% high fat Paigen diet (60 kcal % fat, 1.25% cholesterol, and 0.5% cholate; D11061901, Research Diet) and tap water ad libitum.
# as §1
# [3] = test system: SCAP; assay: Short-term Paigen-diet NASH mouse model: hepatic SCAP gene expression (RT-qPCR); conditions: liver, 21 days; for DDct: SCAP Dct relative to vehicle mean; for Dct: SCAP minus 18S; for 2DDct: SCAP relative expression to vehicle group, normalized to 18S; for SCAP: raw RT-qPCR value
# Protocol: as §2
# After acclimation, 8-week old male C57Bl/6J mice (Charles River) weighing about 25 g were randomized in 4 groups according their body weight and treated once daily around noon by oral gavage with vehicle, or Compound #37 at various for 21 days as follows: Group 1: vehicle-20% (2-hydroxypropyl)-β-cyclodextrin (HP-β-CD) (n=10); Group 2: Compound #37, 5 mg/kg (n=10) Group 3: Compound #37, 20 mg/kg (n=10) Group 4: Compound #37, 40 mg/kg (n=10). During the treatment period, body weight and food intake (measured over 24h) were measured 3 times per week and once a week, respectively. During the acclimation, all mice were fed a standard diet (Special Diets Services RM1 (E), product no. 801492) and tap water ad libitum. After the acclimation period, mice were fed until the end of the experiment with a 60% high fat Paigen diet (60 kcal % fat, 1.25% cholesterol, and 0.5% cholate; D11061901, Research Diet) and tap water ad libitum.
# as §1
# [4] = individual animals, vs vehicle mean, 20 mg/kg
# [5] = Compound #37 5 mg/kg, group mean, n=10
# [6] = Compound #37 5 mg/kg, individual animals, 5 mg/kg
# [7] = Compound #37 20 mg/kg, group mean, n=6
# [8] = Compound #37 20 mg/kg, individual animals, 20 mg/kg
structure (smiles),measurement,setting,value
"CC(C)Cc1cc(-c2nc(-c3ccc(NS(=O)(=O)C(F)(F)F)cc3Cl)cs2)ccn1 [Compound 37, N-(3-chloro-4-(2-(2-isobutylpyridin-4-yl)thiazol-4-yl)phenyl)-1,1,1-trifluoromethanesulfonamide]",HMGCOA Dct,"[1]; individual animals, normalised to 18S, 20 mg/kg",12.8 and 12.14 and 13.78 and 12.65 and 13.57 and 12.83 and 13.03 and 12.86 and 14.49 and 14.63 and 12.37
same,HMGCOA 2^DDct,[1]; [4],1.34 and 2.12 and 0.68 and 1.49 and 0.79 and 1.31 and 1.14 and 1.28 and 0.41 and 0.38 and 1.8
same,HMGCOA DDct,[1]; [4],−0.42 and −1.08 and 0.56 and −0.57 and 0.35 and −0.39 and −0.19 and −0.36 and 1.27 and 1.41 and −0.85
same,HMGCoA (Ct),"[1]; individual animals, 20 mg/kg",25.35 and 24.69 and 26.62 and 25.08 and 25.92 and 25.42 and 24.76 and 25.37 and 25.99 and 26.18 and 24.72
same,HMGCOA 2^DDct,"[1]; mean, n 11",1.16
same,HMGCOA DDct,"[1]; mean, n 11",−0.03
same,HMGCOA Dct,"[1]; mean, n 11",13.2
same,HMGCoA (Ct),"[1]; mean, n 11",25.5
same,MCP-1 gene expression: 2DDct,"[2]; 5 mg/kg, group mean, n 10",0.74
same,MCP-1 gene expression: DDct,"[2]; 5 mg/kg, group mean, n 10",0.62
same,MCP-1 gene expression: Dct,"[2]; 5 mg/kg, group mean, n 10",13.9
same,MCP-1 gene expression: MCP-1,"[2]; 5 mg/kg, group mean, n 10",26.2
same,MCP-1 gene expression: 2DDct,"[2]; 5 mg/kg, individual animals",1.08 and 0.98 and 0.28 and 1.4 and 0.5 and 0.46 and 0.85 and 1.04 and 0.48 and 0.33
same,MCP-1 gene expression: DDct,"[2]; 5 mg/kg, individual animals",−0.11 and 0.03 and 1.82 and −0.49 and 0.99 and 1.11 and 0.24 and −0.06 and 1.07 and 1.59
same,MCP-1 gene expression: Dct,"[2]; 5 mg/kg, individual animals",13.2 and 13.36 and 15.15 and 12.84 and 14.32 and 14.44 and 13.57 and 13.27 and 14.4 and 14.92
same,MCP-1 gene expression: MCP-1,"[2]; 5 mg/kg, individual animals",26.68 and 26.47 and 26.76 and 26.19 and 26.35 and 27.79 and 25.17 and 25.06 and 25.54 and 26.04
same,MCP-1 gene expression: 2DDct,"[2]; 20 mg/kg, group mean, n 6",2.15
same,MCP-1 gene expression: DDct,"[2]; 20 mg/kg, group mean, n 6",−0.5
same,MCP-1 gene expression: Dct,"[2]; 20 mg/kg, group mean, n 6",12.8
same,MCP-1 gene expression: MCP-1,"[2]; 20 mg/kg, group mean, n 6",25
same,MCP-1 gene expression: 2DDct,"[2]; 20 mg/kg, individual animals",1.27 and 2.99 and 4.08 and 3.73 and 0.54 and 0.26
same,MCP-1 gene expression: DDct,"[2]; 20 mg/kg, individual animals",−0.35 and −1.58 and −2.03 and −1.9 and 0.88 and 1.95
same,MCP-1 gene expression: Dct,"[2]; 20 mg/kg, individual animals",12.98 and 11.75 and 11.3 and 11.43 and 14.21 and 15.28
same,MCP-1 gene expression: MCP-1,"[2]; 20 mg/kg, individual animals",25.89 and 24.04 and 23.5 and 24.46 and 25.7 and 26.54
same,DDct,[3]; [5],0.19
same,DDct,[3]; [6],−0.7 and 0.72 and −0.1 and −0.18 and 1.21 and 0.7 and 0.27 and −0.21 and −0.02 and 0.17
same,DDct,[3]; [7],0.07
same,DDct,[3]; [8],0.6 and 0.83 and 0.33 and −1.29 and 0.9 and −0.94
same,Dct,[3]; [5],12.8
same,Dct,[3]; [6],11.96 and 13.38 and 12.56 and 12.48 and 13.87 and 13.36 and 12.93 and 12.45 and 12.64 and 12.83
same,Dct,[3]; [7],12.7
same,Dct,[3]; [8],13.26 and 13.49 and 12.99 and 11.37 and 13.56 and 11.72
same,2DDct,[3]; [5],0.94
same,2DDct,[3]; [6],1.62 and 0.61 and 1.07 and 1.13 and 0.43 and 0.62 and 0.83 and 1.16 and 1.01 and 0.89
same,2DDct,[3]; [7],1.15
same,2DDct,[3]; [8],0.66 and 0.56 and 0.79 and 2.44 and 0.54 and 1.92
same,SCAP,[3]; [5],25.1
same,SCAP,[3]; [6],25.42 and 26.49 and 24.17 and 25.83 and 25.9 and 26.71 and 24.53 and 24.24 and 23.78 and 23.95
same,SCAP,[3]; [7],24.9
same,SCAP,[3]; [8],26.17 and 25.78 and 25.19 and 24.4 and 25.05 and 22.98
